Assay results taken from ChEMBL document CHEMBL3792320, “Synthesis, biological evaluation and molecular docking studies of 2-amino-3,4,5-trimethoxyaroylindole derivatives as novel anticancer agents” (2016).
Activity calls are given as the source filed them. The rule behind the calls is not given here.

Legend:
Assay type in all cases: functional
[1] = test system: MCF7; assay: Cytotoxicity against human MCF7 cells assessed as reduction in cell growth after 48 hrs by SRB assay
[2] = test system: HT-29; assay: Cytotoxicity against human HT-29 cells assessed as reduction in cell growth after 48 hrs by SRB assay
[3] = test system: MCF7; assay: Cytotoxicity against human MCF7 cells assessed as reduction in cell viability after 72 hrs by MTS assay; details: MCF7, 72 h

COc1cc2[nH]cc(C(=O)c3cc(OC)c(OC)c(OC)c3N)c2cc1OC
GI50 ([1]; MCF7, 48 h): 38400 nM | GI50 ([2]; HT-29, 48 h): 24400 nM

COc1cc(C(=O)c2c[nH]c3cc(F)ccc23)c(N)c(OC)c1OC
GI50 ([1]; MCF7, 48 h): 42800 nM | GI50 ([2]; HT-29, 48 h): 64200 nM

COC(=O)c1[nH]c2ccccc2c1C(=O)c1cc(OC)c(OC)c(OC)c1N
GI50 ([1]; MCF7, 48 h): 193 nM | GI50 ([2]; HT-29, 48 h): 2380 nM

COc1cc(Cc2c[nH]c3ccc(Cl)cc23)c(N)c(OC)c1OC
GI50 [1]: inactive | GI50 [2]: inactive

COc1ccc2c(C(=O)c3cc(OC)c(OC)c(OC)c3N)c[nH]c2c1
GI50 ([1]; MCF7, 48 h): 13 nM | GI50 ([2]; HT-29, 48 h): 143 nM

COc1cc(Cc2c[nH]c3ccc(Br)cc23)c(N)c(OC)c1OC
GI50 [1]: inactive | GI50 [2]: inactive

COc1ccc2[nH]cc(Cc3cc(OC)c(OC)c(OC)c3N)c2c1
GI50 ([1]; MCF7, 48 h): 32800 nM | GI50 ([2]; HT-29, 48 h): > 100000 nM

COc1ccc2c(Cc3cc(OC)c(OC)c(OC)c3N)c[nH]c2c1
GI50 ([1]; MCF7, 48 h): 1830 nM | GI50 ([2]; HT-29, 48 h): 74800 nM

COC(=O)c1[nH]c2ccc(Cl)cc2c1C(=O)c1cc(OC)c(OC)c(OC)c1N
GI50 ([1]; MCF7, 48 h): 171 nM | GI50 ([2]; HT-29, 48 h): 2140 nM

CCOC(=O)c1[nH]c2ccc(Cl)cc2c1C(=O)c1cc(OC)c(OC)c(OC)c1N
GI50 ([1]; MCF7, 48 h): 590 nM | GI50 ([2]; HT-29, 48 h): 6840 nM

CCOC(=O)c1[nH]c2ccc(Br)cc2c1C(=O)c1cc(OC)c(OC)c(OC)c1N
GI50 ([1]; MCF7, 48 h): 425 nM | GI50 ([2]; HT-29, 48 h): 5380 nM

COc1cc2[nH]cc(Cc3cc(OC)c(OC)c(OC)c3N)c2cc1OC
GI50 [1]: inactive | GI50 [2]: inactive

COc1cc(C(=O)c2c[nH]c3ccc(Cl)cc23)c(N)c(OC)c1OC
GI50 ([1]; MCF7, 48 h): 321 nM | GI50 ([2]; HT-29, 48 h): 4850 nM

COc1cc(C(=O)c2c[nH]c3ccccc23)c(N)c(OC)c1OC
GI50 ([1]; MCF7, 48 h): 900 nM | GI50 ([2]; HT-29, 48 h): 9800 nM

CCOC(=O)c1[nH]c2ccccc2c1C(=O)c1cc(OC)c(OC)c(OC)c1N
GI50 ([1]; MCF7, 48 h): 480 nM | GI50 ([2]; HT-29, 48 h): 5630 nM

COc1cc(Cc2c[nH]c3ccccc23)c(N)c(OC)c1OC
GI50 ([1]; MCF7, 48 h): 45000 nM | GI50 ([2]; HT-29, 48 h): > 100000 nM

COc1cc(C(=O)c2c[nH]c3cccc(OC)c23)c(N)c(OC)c1OC
GI50 ([1]; MCF7, 48 h): > 100000 nM | GI50 ([2]; HT-29, 48 h): > 100000 nM

COc1cc(Cc2c[nH]c3cc(F)ccc23)c(N)c(OC)c1OC
GI50 [1]: inactive | GI50 [2]: inactive

COc1cc(C(=O)c2c[nH]c3ccc(Br)cc23)c(N)c(OC)c1OC
GI50 ([1]; MCF7, 48 h): 360 nM | GI50 ([2]; HT-29, 48 h): 3830 nM

COC(=O)c1[nH]c2ccc(Br)cc2c1C(=O)c1cc(OC)c(OC)c(OC)c1N
GI50 ([1]; MCF7, 48 h): 124 nM | GI50 ([2]; HT-29, 48 h): 1940 nM

COc1cc(Cc2c[nH]c3cccc(OC)c23)c(N)c(OC)c1OC
GI50 [1]: inactive | GI50 [2]: inactive

COC(=O)c1[nH]c2ccc(OC)cc2c1C(=O)c1cc(OC)c(OC)c(OC)c1N
GI50 ([1]; MCF7, 48 h): 102 nM | GI50 ([2]; HT-29, 48 h): 1240 nM

COc1cc(C(=O)c2c[nH]c3c(OC)cccc23)c(N)c(OC)c1OC
GI50 ([1]; MCF7, 48 h): 9960 nM | GI50 ([2]; HT-29, 48 h): 48600 nM

COc1ccc(/C=C\c2cc(OC)c(OC)c(OC)c2)cc1O [COMBRETASTATIN A4]
GI50 ([1]; MCF7, 48 h): 25 nM | GI50 ([2]; HT-29, 48 h): 260 nM

COc1cc(C(=O)c2c[nH]c3ccc(C)cc23)c(N)c(OC)c1OC
GI50 ([1]; MCF7, 48 h): 12400 nM | GI50 ([2]; HT-29, 48 h): > 100000 nM

COc1ccc2c(C(=O)c3cc(OC)c(OC)c(OC)c3)c[nH]c2c1
GI50 [3]: 7 nM

COc1cc(Cc2c[nH]c3c(OC)cccc23)c(N)c(OC)c1OC
GI50 [1]: inactive | GI50 [2]: inactive

COc1ccc2[nH]cc(C(=O)c3cc(OC)c(OC)c(OC)c3N)c2c1
GI50 ([1]; MCF7, 48 h): 528 nM | GI50 ([2]; HT-29, 48 h): 950 nM

COc1cc(Cc2c[nH]c3ccc(C)cc23)c(N)c(OC)c1OC
GI50 [1]: inactive | GI50 [2]: inactive

CCOC(=O)c1[nH]c2ccc(OC)cc2c1C(=O)c1cc(OC)c(OC)c(OC)c1N
GI50 ([1]; MCF7, 48 h): 540 nM | GI50 ([2]; HT-29, 48 h): 5150 nM
